Experimental data from patent publication US12419900B2, “Induction of synthetic lethality with epigenetic therapy” (The Johns Hopkins University, priority 2017, dated 2025).

Assays:
[1] = system: DU145 prostate cancer cells; assay: Alamar blue cell viability and growth, alisertib x decitabine dose matrix; format: cell-based; conditions: for Percent Growth Inhibition: Alisertib 0 nM
Experimental: DU145 prostate cancer cells and A549 lung cancer cells were treated with varying concentrations (0 nM, 10 nM, 50 nM, and 100 nM) of alisertib in addition to varying concentrations of decitabine (0 nM, 50 nM, 100 nM, and 250 nM). Representative data are shown in FIGS. 2A and 2B, as well as the Tables below. […] In each panel, a dose response of each drug alone and in combination was used in Alamar blue cell viability assays. […] Formal synergy analyses were performed using the Bliss independence score (where values greater than zero indicate greater than additive effect). […] The graph of FIG. 2A is a growth curve of the DU145 prostate cancer cells for the agents alone (decitabine and alisertib separately), a vehicle control, and the agents in combination (decitabine and alisertib together). […] Likewise, the graph of FIG. 2B is a growth curve of the A549 lung cancer cells for the agents alone (decitabine and alisertib separately), a vehicle control, and the agents in combination (decitabine and alisertib together). […] The synergy analysis of the combination of decitabine and alisertib was evaluated in a series of 18 cancer cell lines (9 prostate, 1 ovarian, 1 lung, 2 colon, 2 central nervous system, and 3 breast cancer cell lines) and 2 non-cancer cell models.

[2] = system: A549 lung cancer cells; assay: as above; format: cell-based; conditions: for Percent Growth Inhibition: Alisertib 0 nM
Experimental: DU145 prostate cancer cells and A549 lung cancer cells were treated with varying concentrations (0 nM, 10 nM, 50 nM, and 100 nM) of alisertib in addition to varying concentrations of decitabine (0 nM, 50 nM, 100 nM, and 250 nM). Representative data are shown in FIGS. 2A and 2B, as well as the Tables below. […] Formal synergy analyses were performed using the Bliss independence score (where values greater than zero indicate greater than additive effect). […] The graph of FIG. 2A is a growth curve of the DU145 prostate cancer cells for the agents alone (decitabine and alisertib separately), a vehicle control, and the agents in combination (decitabine and alisertib together). […] Likewise, the graph of FIG. 2B is a growth curve of the A549 lung cancer cells for the agents alone (decitabine and alisertib separately), a vehicle control, and the agents in combination (decitabine and alisertib together). […] The synergy analysis of the combination of decitabine and alisertib was evaluated in a series of 18 cancer cell lines (9 prostate, 1 ovarian, 1 lung, 2 colon, 2 central nervous system, and 3 breast cancer cell lines) and 2 non-cancer cell models.

[3] = system: primary hepatocytes; assay: Cell viability and growth, alisertib x decitabine dose matrix; format: cell-based; conditions: for Percent Growth Inhibition: Alisertib 0 nM
Experimental: The synergy analysis of the combination of decitabine and alisertib was evaluated in a series of 18 cancer cell lines (9 prostate, 1 ovarian, 1 lung, 2 colon, 2 central nervous system, and 3 breast cancer cell lines) and 2 non-cancer cell models. A final cumulative Bliss synergy score was calculated based on the sum of the synergy values from each of the 16 combinations of 0 nM, 10 nM, 50 nM, and 100 nM of alsertib together with 0 nM, 50 nM, 100 nM, and 250 nM of decitabine.

[4] = system: DU145 xenograft tumor; assay: In vivo xenograft study of DU145, decitabine and alisertib; parameters: species or system nude mice; conditions: for tumor growth (FIG. 5A): decitabine alone, alisertib high and low dose alone, combinations concurrent or primed, low and high dose alisertib; for xenograft tissue growth or survival compared to the vehicle control: single agent therapy at the doses tested (decitabine 0.75 mg/kg; alisertib 15 or 25 mg/kg)
Experimental: Using in vivo xenograft studies of the DU145 prostate cancer cell line, the effect was explored of the treatment of two dose levels of alisertib alone or in combination with decitabine using two different treatment time schedules over a period of seven weeks. First, nude mice were inoculated with DU145 cells that were allowed to incubate for 10-12 days to establish xenograft tumor. The inoculated mice were then treated concomitantly with both a high dose and a low dose of alisertib and decitabine in the first two weeks or primed with decitabine alone for two weeks followed by alisertib alone in the first cycle. The dose of decitabine was held constant at 0.75 mg/kg and given with either low-dose (15 mg/kg) or high-dose (25 mg/kg) alisertib, as indicated in FIG. 4. The cumulative number of doses of decitabine and alisertib was the same in all combination treatment arms in both schedules.

[5] = system: residual xenograft tumors; assay: KI-67 and Caspase 3A staining of residual xenograft tumors; format: in vivo, nude mice; conditions: decitabine pre-treatment experiment
From the text: The proliferative index and apoptotic fraction in residual xenograft tumors from the decitabine pre-treatment experiment was then examined. Sample cells from each of the vehicle control, decitabine pre-treatment alone, alisertib alone, and decitabine pretreatment in combination with alisertib were stained with either KI-67 or Caspase 3A.

[6] = system: Aurora Kinase A (AURKA); assay: Western Blot in DU145 cells; format: cell-based; conditions: 100 nM decitabine, 100 nM alisertib
Experimental: (§1) Western Blot analyses for AURKA were performed on DU145 cell tissue sample treated with vehicle control; 100 nM alisertib alone; 100 nM decitabine alone; and 100 nM of decitabine in combination with 100 nM of alisertib.

[7] = system: DNMT3B; assay: Western Blot in DU145 cells; format: cell-based; conditions: 100 nM decitabine, 100 nM alisertib
Experimental: as §1, with “DNA methyltransferase enzymes comprise a family of enzymes including DNMT1, DNMT3A, and DNMT3B. […] In this study, Western” for “Western”, “DNMT3B” for “AURKA”

[8] = system: DNMT1; assay: Protein levels in DU145 cells (data not shown); format: cell-based
[9] = system: Satellite 2 sequences; assay: Bisulfite genomic sequencing of repetitive elements; format: cell-based; conditions: DU145; vehicle control 45.09%
[10] = In vivo toxicity profile of treated mice; conditions: FIGS. 7D and 7E
From the text: The toxicity profile of the treated mice was observed, and the animals were weighed over the course of the experiment.

[11] = system: DNMT3A; assay: Protein levels in DU145 cells (data not shown); format: cell-based

Compound: Nc1ncn([C@H]2C[C@H](O)[C@@H](CO)O2)c(=O)n1 [decitabine, 5-aza-2′-deoxycytidine]
- Percent Growth Inhibition ([1]; DU145, DAC 50 nM): 0.04
- Percent Growth Inhibition ([1]; DU145, DAC 100 nM): 0.08
- Percent Growth Inhibition ([1]; DU145, DAC 250 nM): 0.77
- cell survival in tissue culture ([1]; DU145, low dose decitabine 100 nM): most of the cells survived
- Percent Growth Inhibition ([2]; DAC 50 nM): 0.03
- Percent Growth Inhibition ([2]; DAC 100 nM): 0
- Percent Growth Inhibition ([2]; DAC 250 nM): 0.14
- Percent Growth Inhibition ([3]; DAC 50 nM): 0.16
- Percent Growth Inhibition ([3]; DAC 100 nM): 0.30
- Percent Growth Inhibition ([3]; DAC 250 nM): 0.29
- Fold Change in Tumor Size, Mean ([4]; DAC 0.75 mg/kg alone, week 0): 1
- Fold Change in Tumor Size, Mean ([4]; DAC 0.75 mg/kg alone, week 1): 1.31
- Fold Change in Tumor Size, Mean ([4]; DAC 0.75 mg/kg alone, week 2): 1.90
- Fold Change in Tumor Size, Mean ([4]; DAC 0.75 mg/kg alone, week 3): 2.68
- Fold Change in Tumor Size, Mean ([4]; DAC 0.75 mg/kg alone, week 4): 3.81
- Fold Change in Tumor Size, Mean ([4]; DAC 0.75 mg/kg alone, week 5): 4.60
- Fold Change in Tumor Size, Mean ([4]; DAC 0.75 mg/kg alone, week 6): 5.10
- Fold Change in Tumor Size, Mean ([4]; DAC 0.75 mg/kg alone, week 7): 5.49
- tumor growth (FIG. 5A) [4]: continued to grow at a significant rate
- xenograft tissue growth or survival compared to the vehicle control [4]: did not significantly alter
- Caspase 3A staining (apoptosis) [5]: almost no alteration
- KI-67 staining (cell proliferation) [5]: almost no alteration
- AURKA protein levels [6]: significantly induce
- DNMT3B levels [7]: did not significantly alter
- DNMT1 levels [8]: significantly reduced
- percent of CpG Satellite 2 methylation [9]: 33.33%

Compound: COc1cc(Nc2ncc3c(n2)-c2ccc(Cl)cc2C(c2c(F)cccc2OC)=NC3)ccc1C(=O)O [alisertib]
- growth inhibition of DU-145 cells in combination with decitabine ([1]; Aurora kinase inhibitor + decitabine): synergistic growth inhibition
- inhibition at 0.01 µM ([1]; Homo sapiens, DU-145, DU145, DAC 0 nM, Alisertib 10 nM, read-out: Percent Growth Inhibition): 0%
- inhibition at 0.05 µM ([1]; Homo sapiens, DU-145, DU145, DAC 0 nM, Alisertib 50 nM, read-out: Percent Growth Inhibition): 0%
- inhibition at 0.1 µM ([1]; Homo sapiens, DU-145, DU145, DAC 0 nM, Alisertib 100 nM, read-out: Percent Growth Inhibition): 2%
- inhibition at 0.01 µM ([2]; Homo sapiens, DAC 0 nM, Alisertib 10 nM, read-out: Percent Growth Inhibition): 0%
- inhibition at 0.05 µM ([2]; Homo sapiens, DAC 0 nM, Alisertib 50 nM, read-out: Percent Growth Inhibition): 0%
- inhibition at 0.1 µM ([2]; Homo sapiens, DAC 0 nM, Alisertib 100 nM, read-out: Percent Growth Inhibition): 1%
- inhibition at 0.01 µM ([3]; Hepatocyte, DAC 0 nM, Alisertib 10 nM, read-out: Percent Growth Inhibition): 10%
- inhibition at 0.05 µM ([3]; Hepatocyte, DAC 0 nM, Alisertib 50 nM, read-out: Percent Growth Inhibition): 21%
- inhibition at 0.1 µM ([3]; Hepatocyte, DAC 0 nM, Alisertib 100 nM, read-out: Percent Growth Inhibition): 15%
- Fold Change in Tumor Size, Mean ([4]; Alisertib high dose 25 mg/kg alone, week 0): 1
- Fold Change in Tumor Size, Mean ([4]; Alisertib high dose 25 mg/kg alone, week 1): 1.69
- Fold Change in Tumor Size, Mean ([4]; Alisertib high dose 25 mg/kg alone, week 2): 2.35
- Fold Change in Tumor Size, Mean ([4]; Alisertib high dose 25 mg/kg alone, week 3): 3.16
- Fold Change in Tumor Size, Mean ([4]; Alisertib high dose 25 mg/kg alone, week 4): 5.08
- Fold Change in Tumor Size, Mean ([4]; Alisertib high dose 25 mg/kg alone, week 5): 6.47
- Fold Change in Tumor Size, Mean ([4]; Alisertib high dose 25 mg/kg alone, week 6): 8.46
- Fold Change in Tumor Size, Mean ([4]; Alisertib high dose 25 mg/kg alone, week 7): 9.98
- Fold Change in Tumor Size, Mean ([4]; Alisertib low dose 15 mg/kg alone, week 0): 1
- Fold Change in Tumor Size, Mean ([4]; Alisertib low dose 15 mg/kg alone, week 1): 1.31
- Fold Change in Tumor Size, Mean ([4]; Alisertib low dose 15 mg/kg alone, week 2): 2.25
- Fold Change in Tumor Size, Mean ([4]; Alisertib low dose 15 mg/kg alone, week 3): 2.96
- Fold Change in Tumor Size, Mean ([4]; Alisertib low dose 15 mg/kg alone, week 4): 4.33
- Fold Change in Tumor Size, Mean ([4]; Alisertib low dose 15 mg/kg alone, week 5): 5.12
- Fold Change in Tumor Size, Mean ([4]; Alisertib low dose 15 mg/kg alone, week 6): 6.02
- Fold Change in Tumor Size, Mean ([4]; Alisertib low dose 15 mg/kg alone, week 7): 7.54
- tumor growth (FIG. 5A) [4]: continued to grow at a significant rate
- xenograft tissue growth or survival compared to the vehicle control [4]: did not significantly alter
- AST and ALT (liver function) [10]: elevated
- Caspase 3A staining (apoptosis) [5]: almost no alteration
- KI-67 staining (cell proliferation) [5]: almost no alteration
- DNMT3B levels [7]: significantly reduce
- DNMT1 levels [8]: did not significantly affect
- DNMT3A levels [11]: did not significantly affect
- percent of CpG Satellite 2 methylation [9]: 40.6%
